Experimental data taken from patent US9556153B1, “JAK1 inhibitors” (Eli Lilly and Company, priority 2015, dated 2017).

Test system: phosphorylation of STAT3 in the H1975 xenograft
Test: pSTAT3 Mouse IVTI (JAK1) Assay, H1975 xenograft
Assay type: in vivo
Details: single oral dose, two hours, n=1
Protocol: pSTAT3 Mouse IVTI (JAK1) Assay
The purpose of this assay is to measure the ability of test compounds to inhibit the phosphorylation of STAT3 (STAT3 activation) in the H1975 xenograft mouse model. Grow H1975 cells according to ATCC specifications at the lowest possible passage number available. Culture and maintain cells in RPMI-1640 supplemented with 10% FBS and incubated at 37° C. in 5% CO2. Harvest cells by standard techniques and mix with BD Biosciences basement membrane matrix (MATRIGEL®) to cell suspension to achieve a 1:1 cell/matrix ratio yielding an inoculation volume of 0.2 mL cell/matrix suspension containing 5e6 cells. […] Time course studies are a single dose administered at the TED70 determined from the dose response study.
Harvest and cut tumors to yield approximately 150-250 mm^3 size fragments and immediately drop into a 12×75 mm tube containing 1 mL of ice cold MSD Tris Lysis buffer (Meso Scale Discovery cat# R60TX-2) and 1×HALT (Thermo Scientific product #1861281). […] Cool plate to RT and measure absorbance at or near 562 nm on Molecular Devices Spectra Max. Protein concentrations for each sample are determined using SoftMax Pro 6.3 software program. After tumor samples are quantitated, freeze lysates at −80° C. in the 96 well polypropylene plate and assay at a later date. […]

Cc1cc(Nc2cc(O[C@H]3CC[C@@H](NC[C@@H](O)C(F)(F)F)CC3)cc3c2ncn3C)nn1C [Example 1, (2R)-3-{[cis-4-({4-[(1,5-Dimethyl-1H-pyrazol-3-yl)amino]-1-methyl-1H-benzimidazol-6-yl}oxy)cyclohexyl]amino}-1,1,1-trifluoropropan-2-ol]
TEC50 (plasma concentration to achieve 50% pSTAT3 inhibition): 11.1 μM | TED50 (dose necessary to achieve 50% pSTAT3 inhibition): 35 mg/kg
